According to patent US8460669B2, “Compositions and methods for identifying response targets and treating flavivirus infection responses” (Academia Sinica, priority 2005, dated 2013):

How the values were obtained:
Conditions in all cases: sugar 1 mg/ml
Langerin = target: T1, Langerin (Homo sapiens, UniProt Q9UJ71); experiment: Sugar competition EIA, Fc.Langerin binding to GLPS-F3
T1 construct: The extracellular domains of lectin receptors, TREMs and TLTs were cloned by the reverse-transcriptase polymerase chain reaction (RT-PCR); made in house; host or cells: 293-F (FreeStyle 293) cells
Description: (§1) The interaction between GLPS-F3 and receptor.Fc was then tested. Unbiotinylated GLPS-F3 was immobilized at 100 ng/well as described above, and 100 μL receptor.Fc fusion protein (1 μg/ml in 2 mM MgCl2/2 mM CaCl2/1% BSA/TBST) was added into each well and incubated for 1 hour at room temperature. After washing with TBST, wells were incubated with peroxidase-conjugated goat anti-human IgG Ab (1:5000 dilution, Jackson ImmunoResearch Laboratories) in blocking buffer at room temperature for 30 min. Wells were incubated with 100 μL TMB substrate for 15 min after TBST washing and read at 450 nm in a Fusion plate reader (Perkin Elmer). The results were normalized with respect to Fc.Dectin-1 binding (Dectin-1 is a known lectin receptor that binds to β-1,3-glucan which is the backbone found in GLPS-F3). FIG. 6B depicts in graphical form the affinity of each receptor for GLPS-F3 relative to Dectin-1. […] There was also weaker but positive GLPS-F3 binding ability (25-50% binding intensity compared to Fc.dectin-1) found in Fc.NKG2D, Fc.MINCLE, Fc.mKCR, DCAL1.Fc, DEC205.Fc, Endo180.Fc and NKp30(NCR3).Fc.
(§2) To understand the interaction of GLPS-F3 with specific innate immunity receptors, the polysaccharides mannan and β-glucan and the monosaccharides D-mannose (Man), D-glucose (Glc), N-acetyl-glucosamine (GlcNAc), D-galactose (Gal), N-acetyl-galactosamine (GalNAc), L-fucose (Fuc) and sialic acid, were used in a competition assay. […] The assays were carried out as in Example 9, with the addition of 1 mg/ml of each polysaccharide or monosaccharide.

Dectin-1 = target: T2, Dectin-1 (Homo sapiens, UniProt Q9BXN2); experiment: Sugar competition EIA, Fc.Dectin-1 binding to GLPS-F3
T2 construct: The extracellular domains of lectin receptors, TREMs and TLTs were cloned by the reverse-transcriptase polymerase chain reaction (RT-PCR); made in house; host or cells: 293-F (FreeStyle 293) cells
T2 sequence (Q9BXN2 66-247 limits assumed): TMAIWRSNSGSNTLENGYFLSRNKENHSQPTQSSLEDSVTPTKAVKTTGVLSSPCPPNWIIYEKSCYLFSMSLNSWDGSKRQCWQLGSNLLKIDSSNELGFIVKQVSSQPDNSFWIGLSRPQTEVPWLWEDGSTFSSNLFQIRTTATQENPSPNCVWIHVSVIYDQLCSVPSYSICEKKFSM
Description: as §1, §2

CLEC-2 = target: T3, CLEC-2 (Homo sapiens, UniProt Q9P126); experiment: Sugar competition EIA, Fc.CLEC-2 binding to GLPS-F3
T3 construct: The extracellular domains of lectin receptors, TREMs and TLTs were cloned by the reverse-transcriptase polymerase chain reaction (RT-PCR); made in house; host or cells: 293-F (FreeStyle 293) cells
Description: as §1, §2

TLR4.Fc = target: T4, TLR4.Fc (Homo sapiens, UniProt O00206); experiment: Sugar competition EIA, TLR4.Fc binding to GLPS-F3
T4 construct: The extracellular domains of several innate immunity receptors from immune cells were cloned by reverse-transcription polymerase chain reaction (RT-PCR); made in house; host or cells: 293-F (FreeStyle 293) cells
Description: as §1, §2

CLEC-6 = target: T5, CLEC-6 (Homo sapiens, UniProt Q8WXI8); experiment: Sugar competition EIA, Fc.CLEC-6 binding to GLPS-F3
T5 construct: The extracellular domains of lectin receptors, TREMs and TLTs were cloned by the reverse-transcriptase polymerase chain reaction (RT-PCR); made in house; host or cells: 293-F (FreeStyle 293) cells
T5 sequence (Q8WXI8 39-215 limits assumed): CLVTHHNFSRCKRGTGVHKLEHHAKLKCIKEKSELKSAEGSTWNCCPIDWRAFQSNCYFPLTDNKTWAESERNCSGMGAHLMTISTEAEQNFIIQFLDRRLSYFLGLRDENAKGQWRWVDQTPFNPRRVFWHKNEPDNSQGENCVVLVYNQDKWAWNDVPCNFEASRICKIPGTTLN
Description: as §1, §2

MMR.Fc = target: T6, MMR.Fc (Homo sapiens, UniProt P22897); experiment: Sugar competition EIA, MMR.Fc binding to GLPS-F3
T6 construct: The extracellular domains of lectin receptors, TREMs and TLTs were cloned by the reverse-transcriptase polymerase chain reaction (RT-PCR); made in house; host or cells: 293-F (FreeStyle 293) cells
T6 sequence (P22897 19-1389 limits assumed): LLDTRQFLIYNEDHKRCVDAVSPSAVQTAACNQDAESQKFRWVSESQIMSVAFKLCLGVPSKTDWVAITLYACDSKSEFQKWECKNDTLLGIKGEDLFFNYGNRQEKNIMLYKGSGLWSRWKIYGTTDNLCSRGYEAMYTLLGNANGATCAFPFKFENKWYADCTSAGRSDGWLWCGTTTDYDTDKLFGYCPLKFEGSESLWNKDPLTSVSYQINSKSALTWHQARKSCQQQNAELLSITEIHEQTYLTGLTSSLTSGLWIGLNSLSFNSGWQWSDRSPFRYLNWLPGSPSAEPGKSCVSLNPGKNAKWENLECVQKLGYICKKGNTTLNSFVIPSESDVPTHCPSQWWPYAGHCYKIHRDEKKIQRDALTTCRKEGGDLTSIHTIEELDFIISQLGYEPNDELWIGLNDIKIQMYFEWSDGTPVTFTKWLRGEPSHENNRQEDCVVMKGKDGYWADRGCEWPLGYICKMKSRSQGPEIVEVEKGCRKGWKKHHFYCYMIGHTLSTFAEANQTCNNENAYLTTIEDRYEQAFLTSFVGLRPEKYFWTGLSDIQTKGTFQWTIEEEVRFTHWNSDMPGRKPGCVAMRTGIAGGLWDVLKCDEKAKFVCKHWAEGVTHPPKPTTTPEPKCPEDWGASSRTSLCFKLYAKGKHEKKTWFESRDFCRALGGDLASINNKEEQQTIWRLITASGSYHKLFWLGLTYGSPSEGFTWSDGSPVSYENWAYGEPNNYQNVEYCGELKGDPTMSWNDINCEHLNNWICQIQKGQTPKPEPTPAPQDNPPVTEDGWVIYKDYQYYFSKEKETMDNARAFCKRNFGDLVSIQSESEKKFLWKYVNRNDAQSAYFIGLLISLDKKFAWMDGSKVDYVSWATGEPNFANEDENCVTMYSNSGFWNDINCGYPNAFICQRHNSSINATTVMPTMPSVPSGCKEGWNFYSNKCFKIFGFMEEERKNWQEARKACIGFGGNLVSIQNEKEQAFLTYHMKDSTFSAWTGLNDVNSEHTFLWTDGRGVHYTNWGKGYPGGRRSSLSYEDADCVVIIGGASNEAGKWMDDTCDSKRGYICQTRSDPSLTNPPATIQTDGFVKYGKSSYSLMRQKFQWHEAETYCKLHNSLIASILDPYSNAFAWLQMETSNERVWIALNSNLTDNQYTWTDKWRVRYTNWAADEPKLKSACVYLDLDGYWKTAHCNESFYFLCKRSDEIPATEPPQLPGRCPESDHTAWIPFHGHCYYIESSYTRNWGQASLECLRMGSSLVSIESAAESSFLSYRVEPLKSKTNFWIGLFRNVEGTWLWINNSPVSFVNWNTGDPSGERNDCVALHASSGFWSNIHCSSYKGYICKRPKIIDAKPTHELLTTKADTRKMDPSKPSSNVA
Description: as §1, §2

T1 sequence (Q9UJ71 65-328 limits assumed): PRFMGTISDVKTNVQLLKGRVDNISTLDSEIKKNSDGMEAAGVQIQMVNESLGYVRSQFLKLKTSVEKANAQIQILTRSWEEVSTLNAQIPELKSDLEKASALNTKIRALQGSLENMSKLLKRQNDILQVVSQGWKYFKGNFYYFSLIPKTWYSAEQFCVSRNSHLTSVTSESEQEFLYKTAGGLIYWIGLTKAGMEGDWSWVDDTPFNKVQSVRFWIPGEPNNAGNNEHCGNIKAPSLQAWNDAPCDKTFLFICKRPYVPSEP
T3 sequence (Q9P126 55-229 limits assumed): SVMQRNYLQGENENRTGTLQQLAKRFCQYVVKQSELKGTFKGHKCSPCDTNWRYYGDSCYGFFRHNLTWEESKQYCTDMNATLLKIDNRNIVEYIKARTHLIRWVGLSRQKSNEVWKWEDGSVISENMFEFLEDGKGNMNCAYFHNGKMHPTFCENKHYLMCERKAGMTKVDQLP
T4 sequence (O00206 24-631 limits assumed): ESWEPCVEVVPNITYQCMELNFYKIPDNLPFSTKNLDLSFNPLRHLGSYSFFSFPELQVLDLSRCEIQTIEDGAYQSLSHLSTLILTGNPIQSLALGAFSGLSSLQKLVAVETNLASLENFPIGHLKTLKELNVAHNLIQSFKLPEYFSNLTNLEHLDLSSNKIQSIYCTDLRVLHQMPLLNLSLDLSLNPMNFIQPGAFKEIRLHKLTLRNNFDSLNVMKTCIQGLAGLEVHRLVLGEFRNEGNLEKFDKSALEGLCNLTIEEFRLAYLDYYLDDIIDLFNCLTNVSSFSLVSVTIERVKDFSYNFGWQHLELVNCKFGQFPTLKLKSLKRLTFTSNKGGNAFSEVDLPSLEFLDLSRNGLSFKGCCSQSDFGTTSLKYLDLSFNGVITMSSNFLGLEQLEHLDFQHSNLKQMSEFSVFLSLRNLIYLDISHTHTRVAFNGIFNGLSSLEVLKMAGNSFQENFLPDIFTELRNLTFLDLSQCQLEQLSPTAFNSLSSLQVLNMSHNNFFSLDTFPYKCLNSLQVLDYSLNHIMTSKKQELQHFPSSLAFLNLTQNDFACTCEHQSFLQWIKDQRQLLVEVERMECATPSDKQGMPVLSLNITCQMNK

Row | Percentage of binding of Langerin Fc fusion to GLPS-F3 relative to binding in absence of sugar competitor (Langerin) | Percentage of binding of Dectin-1 Fc fusion to GLPS-F3 relative to binding in absence of sugar competitor (Dectin-1) | Percentage of binding of CLEC-2 Fc fusion to GLPS-F3 relative to binding in absence of sugar competitor (CLEC-2) | Percentage of binding of TLR4.Fc to GLPS-F3 relative to binding in absence of sugar competitor (TLR4.Fc) | Percentage of binding of CLEC-6 Fc fusion to GLPS-F3 relative to binding in absence of sugar competitor (CLEC-6) | Percentage of binding of MMR.Fc to GLPS-F3 relative to binding in absence of sugar competitor (MMR.Fc) | inhibition of interaction between GLPS-F3 and Fc.Dectin-1 (Dectin-1) | Molecule | inhibition of TLR4.Fc and GLPS-F3 interaction (TLR4.Fc) | inhibition of interaction between GLPS-F3 and MMR.Fc (MMR.Fc) | inhibition of interaction between Fc.Langerin and GLPS-F3 (Langerin)
1 | 76 ± 1.9% | 92 ± 5.2% | 91 ± 8.5% | 56 ± 1.9% | 82 ± 6.5% | 12 ± 2.0% |  | C[C@H](O)[C@@H](O)[C@@H](O)[C@H](O)C=O [Fuc, L-fucose] | 44% | 88% | 
2 | 77 ± 3.2% | 42 ± 0.3% | 95 ± 5.1% | 96 ± 4.0% | 98 ± 7.3% | 100 ± 4.2% | 58% | β-1,3-glucan [b-glucan] |  |  | 

Row | Molecule | Percentage of binding of Langerin Fc fusion to GLPS-F3 relative to binding in absence of sugar competitor (Langerin) | Percentage of binding of Dectin-1 Fc fusion to GLPS-F3 relative to binding in absence of sugar competitor (Dectin-1) | Percentage of binding of CLEC-2 Fc fusion to GLPS-F3 relative to binding in absence of sugar competitor (CLEC-2) | Percentage of binding of TLR4.Fc to GLPS-F3 relative to binding in absence of sugar competitor (TLR4.Fc) | Percentage of binding of CLEC-6 Fc fusion to GLPS-F3 relative to binding in absence of sugar competitor (CLEC-6) | Percentage of binding of MMR.Fc to GLPS-F3 relative to binding in absence of sugar competitor (MMR.Fc) | inhibition of interaction between GLPS-F3 and Fc.Dectin-1 (Dectin-1) | inhibition of TLR4.Fc and GLPS-F3 interaction (TLR4.Fc) | inhibition of interaction between GLPS-F3 and MMR.Fc (MMR.Fc) | inhibition of interaction between Fc.Langerin and GLPS-F3 (Langerin)
3 | mannan | 5 ± 0.9% | 82 ± 0.2% | 88 ± 6.3% | 28 ± 6.3% | 75 ± 0.8% | 2 ± 0.5% |  | 72% | 98% | 95%
